What was measured:
[1] = tested on: glioma cell lines U87 and U251; assay: cell viability with DS, TMZ and the combination; format: cell-based; conditions: Homo sapiens, U-251, TMZ 200 μM, DS 200 nM, alone or combined
Procedure: To investigate the ability of DS to modify the response of glioma cells to TMZ treatment, we evaluated the effects of TMZ (200 μM) alone, DS (200 nM) alone, and a combination of both TMZ and DS on the viability of the glioma cell lines U87 and U251 (Figure 5A).
The antiproliferative effect of DS on cells growing in culture was determined using the CellTiter-Blue (Promega, Madison, WI) viability assay. The mean drug concentration required to inhibit cell proliferation by 50% (IC50) compared with vehicle-treated controls was calculated using CalcuSyn Version 2.0 software (Great ShelfordCambridge, United Kingdom).

[2] = tested on: U87 xenografts; assay: U87 intracranial xenograft, DS, TMZ or DS + TMZ; conditions: U87 xenograft-bearing nude mice, TMZ 7.5 mg/kg
Procedure: Data are presented as the mean ± SD of three experiments. […] D, Kaplan–Meier survival curves comparing the treatments using log-rank tests. DS and TMZ were compared with the control group, and DS + TMZ was compared with the control group, TMZ alone, and DS alone. E, Representative H&E-stained whole brain sections at 4 weeks after treatment. […] The tissue sections were incubated with antibodies against Ki-67.
To evaluate the long-term antitumor effect of the TMZ/DS combination, we further assessed the effects of TMZ, DS, or the combination treatment on the survival rate of U87 xenograft-bearing nude mice, which indirectly reflected the survival of tumor-bearing mice relative to their tumor burden.

[3] = tested on: U87 GFP-LC3 cells; assay: GFP-LC3 puncta detection (autophagy); format: cell-based, human; conditions: TMZ 125 μM, DS 100 nM, control 2%
Source text: To investigate the effects of DS, TMZ, or the TMZ/DS combination on autophagy in glioma cells, we transfected cells with GFP-LC3 constructs in addition to various drug treatment and control treatment regimens and examined the accumulation of punctate GFP-LC3 structures using fluorescence microscopy. During autophagy, LC3-II relocalizes to the autophagosomal membranes. Thus, the accumulation of GFP-LC3 puncta provides an effective way to detect autophagosomes. In control cells, GFP-LC3 punctate structures were not detected, but large numbers of GFP-LC3 punctate structures were found in cells treated with DS or TMZ (Figure 5C). […] Strikingly, the combination of DS and TMZ further induced autophagy in up to 50% of U87 cells.
U87 GFP-LC3 cells were analyzed by using a fluorescence microscope, and the percentage of cells displaying GFP-LC3-positive puncta was quantified by counting 5 random fields in 3 independent experiments.

Cn1nnc2c(C(N)=O)ncn2c1=O [TMZ, temozolomide, reference compound]
viability at 200 µM [1]: 93% | tumor burden compared with control groups [2]: did not reduce the tumor burden | cells with induced autophagy (GFP-LC3 puncta) [3]: 10%

— PMC5400620, “Preclinical therapeutic efficacy of a novel blood-brain barrier-penetrant dual PI3K/mTOR inhibitor with preferential response in PI3K/PTEN mutant glioma” (Oncotarget, 2017)
